Like-named read-outs stand apart in the source and are kept apart here.
Assays:
blood brain barrier = details: swine subjected to TBI and hemorrhagic shock; cited from earlier work
[1] = system: patients with solid tumors; details: cited from earlier work
healthy subjects = assay: Exposure-safety analysis; type: in vivo, human
[2] = system: swine subjected to hemorrhage and polytrauma; details: intravenous VPA, absence of isotonic fluid resuscitation; cited from earlier work
[3] = Single-dose plasma pharmacokinetics of intravenous VPA; details: for concentration at 24 h / AUC / AUC(0-inf) / Cmax / half-life: human, plasma; for concentration at 24 h: intravenous; for AUC / AUC(0-inf) / Cmax / half-life: iv
[4] = 140 mg/kg dose, oral dosing; cited from earlier work
[5] = 2-Compartment population model (final model), mean (SD)
[6] = 3-Compartment population model, mean (SD)

In the case of `CCCC(CCC)C(=O)O` [VPA, valproic acid], the “Expression of tight-junction and basement membrane associated proteins (zona occludin-1, laminin, claudin-5)” value (blood brain barrier) is listed as “increased expression”, the “Maximum tolerated dose (MTD)” value ([1]; cancer patients, intravenous, daily for five days) is listed as 60 mg/kg/day and the “Previously established maximum tolerated single intravenous dose” value ([1]; ref 21) is listed as 60 mg/kg. For the same molecule, the “Previously established maximum intravenous dose” value ([1]; ref 22) was 75 mg, the “Previously established maximum tolerated single intravenous dose” value ([1]; ref 22) was 75 mg/kg and the “Dose breakpoint for occurrence of adverse events” value (healthy subjects; Chills) was greater than 6597 mg. For the same molecule, the “Dose breakpoint for occurrence of adverse events” value (healthy subjects; Hearing adverse events) was greater than 3222 mg, the Decrease in mortality [2] was 50% and the “Q1, intercompartmental clearance between central and first peripheral compartment” value [3, 5] was 0.64 (0.32) L/h. The “Vc, volume of distribution of the central compartment” value [3, 5] was 11.1 (2.62) L, the “Vp1, volume of distribution of the first peripheral compartment” value [3, 5] was 7.70 (3.28) L and the “Q1, intercompartmental clearance between central and first peripheral compartment” value [3, 6] was 0.62 (0.29) L/h. For the same molecule, the “Q2, intercompartmental clearance between central and second peripheral compartment” value [3, 6] was 3.48(1.47) L/h, the “Vp1, volume of distribution of the first peripheral compartment” value [3, 6] was 7.63 (3.29) L and the “Vp2, volume of distribution of the second peripheral compartment” value [3, 6] was 0.32(0.06) L. The concentration at 24 h ([3]; 15 mg/kg) was 22.6 µg/mL, the concentration at 24 h ([3]; 30 mg/kg) was 39.5 µg/mL and the concentration at 24 h ([3]; 60 mg/kg) was 39.8 µg/mL. It also gave a concentration at 24 h ([3]; 90 mg/kg) of 56.9 µg/mL, a concentration at 24 h ([3]; 120 mg/kg) of 49.7 µg/mL and a concentration at 24 h ([3]; 130 mg/kg) of 97.2 µg/mL. It also gave a concentration at 24 h ([3]; 140 mg/kg) of 140 µg/mL, a concentration at 24 h ([3]; 150 mg/kg) of 81.4 µg/mL and an AUC ([3]; 15 mg/kg) of 1180 µg·h/mL. For the same molecule, the AUC(0-inf) ([3]; 15 mg/kg) was 1710 µg·h/mL, the Cmax ([3]; 15 mg/kg) was 112 µg/mL and the half-life ([3]; 15 mg/kg) was 726 min. The AUC ([3]; 30 mg/kg) was 2200 µg·h/mL, the AUC(0-inf) ([3]; 30 mg/kg) was 3390 µg·h/mL and the Cmax ([3]; 30 mg/kg) was 235 µg/mL. The half-life ([3]; 30 mg/kg) was 726 min, the AUC ([3]; 60 mg/kg) was 2240 µg·h/mL and the AUC(0-inf) ([3]; 60 mg/kg) was 3040 µg·h/mL. The Cmax ([3]; 60 mg/kg) was 248 µg/mL, the half-life ([3]; 60 mg/kg) was 678 min and the AUC ([3]; 90 mg/kg) was 4630 µg·h/mL. For the same molecule, the AUC(0-inf) ([3]; 90 mg/kg) was 5810 µg·h/mL, the Cmax ([3]; 90 mg/kg) was 541 µg/mL and the half-life ([3]; 90 mg/kg) was 534 min. The AUC ([3]; 120 mg/kg) was 3840 µg·h/mL, the AUC(0-inf) ([3]; 120 mg/kg) was 4980 µg·h/mL and the Cmax ([3]; 120 mg/kg) was 537 µg/mL. For the same molecule, the half-life ([3]; 120 mg/kg) was 540 min, the AUC ([3]; 130 mg/kg) was 7740 µg·h/mL and the AUC(0-inf) ([3]; 130 mg/kg) was 11300 µg·h/mL. It also gave a Cmax ([3]; 130 mg/kg) of 855 µg/mL, a half-life ([3]; 130 mg/kg) of 528 min and an AUC ([3]; 140 mg/kg) of 9870 µg·h/mL. For the same molecule, the AUC(0-inf) ([3]; 140 mg/kg) was 13500 µg·h/mL, the Cmax ([3]; 140 mg/kg) was 1270 µg/mL and the half-life ([3]; 140 mg/kg) was 582 min. For the same molecule, the AUC ([3]; 150 mg/kg) was 6910 µg·h/mL, the AUC(0-inf) ([3]; 150 mg/kg) was 8520 µg·h/mL and the Cmax ([3]; 150 mg/kg) was 694 µg/mL. For the same molecule, the half-life ([3]; 150 mg/kg) was 474 min and the Peak plasma concentrations [4] was 300 to 400 µg/mL.

From PMC5699961 (Clinical pharmacokinetics, 2018)
